Biological target: T1, human plasma protein factor Xa (Homo sapiens, UniProt P00742)
T1 construct: measure proteolytic activity of the enzyme (factor Xa); purchased Haematologic Technologies (Essex Junction, Vt.); host or cells: human plasma
Test: Factor Xa IC50 determination (cleavage of chromogenic substrate S-2765)
Type: biochemical
Conditions: fXa 1 nM, S-2765 100 μM, Tris buffered saline pH 7.4, room temperature
Outline: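 Human plasma factor Xa (1 nM) preincubated 5 min at room temperature with inhibitor (0.01 nM–10 μM final) in Tris-buffered saline pH 7.4 with CaCl2, BSA and 5% DMSO. S-2765 added at 100 μM; pNA release at 405 nm over 2 min; initial velocities fitted to four-parameter equation for IC50, duplicates.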

T1 sequence (P00742 235-488 limits assumed): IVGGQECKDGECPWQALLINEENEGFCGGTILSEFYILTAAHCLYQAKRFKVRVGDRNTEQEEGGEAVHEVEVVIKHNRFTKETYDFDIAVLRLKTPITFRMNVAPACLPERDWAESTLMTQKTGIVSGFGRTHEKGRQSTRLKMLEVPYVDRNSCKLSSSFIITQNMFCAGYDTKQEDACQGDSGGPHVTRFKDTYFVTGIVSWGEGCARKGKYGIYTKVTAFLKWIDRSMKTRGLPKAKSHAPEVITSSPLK
T1 sequence (P00742 41-179 partner limits assumed): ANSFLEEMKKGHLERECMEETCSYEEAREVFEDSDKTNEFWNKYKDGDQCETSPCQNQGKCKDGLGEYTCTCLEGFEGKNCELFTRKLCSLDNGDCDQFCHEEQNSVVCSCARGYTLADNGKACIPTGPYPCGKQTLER

IC50: ≥ 500 nM
SMILES: CN1CCC(N2CCCN(C(=O)[C@H](NC(=O)Nc3ccc(Cl)cc3)c3ccccc3)CC2)CC1 [Example 156, (2R) 4-(1-methylpiperidin-4-yl)homopiperazin-1-yl-2-phenyl-2-(4-chlorophenylaminocarbonylamino)-acetamide]

From patent US7678913B2, “Ureas as factor Xa inhibitors” (Portola Pharmaceuticals, Inc., priority 2004, dated 2010)
